Results reported in patent publication US20210220241A1, “Body Sculpting” (Sculpt B.V., priority 2014, published 2021).
Counter-ions that a name gives are not always drawn. Like-named read-outs stand apart in the source and are kept apart here.

Tests used:
[1] = Stability / hydrolysis in PBS at 37 degrees (Example 6); assay type: physicochemical
Protocol: Samples were analyzed using HPLC UV.

human fat suspension [2] = test: In vitro glycerol production assay, 250 mg/ml human fat suspension (Example 9); assay type: cell-based; settings: for Glycerol production (FIG. 20): 250 mg/ml human fat suspension, 4 hrs at 37 degrees Celsius; for Glycerol content: 4 hrs at 37° C.
Protocol: Test compounds were added at a concentration as indicated and vials were incubated for 4 hrs at 37° C. Vials were mixed every hour. Glycerol production in 4 hrs was calculated by analyzing glycerol content of the control (a suspension which was not incubated but instead immediately frozen) vs control samples that were incubated for 4 hours. The produced glycerol quantity was set as 100%. The glycerol content of experimental samples was expressed as % of the control.
Experimental samples were frozen after incubation. The fat pellet was removed and upon defrosting, samples were spun down (13000 rpm for 15 min at 4° C.), and clear supernatant was pipetted off and frozen until analysis.
Glycerol was analyzed using an enzymatic kit (Glycerol Assay Kit, Sigma Aldrich). Briefly, in a 96 well plate (Corning), 100 microliter glycerol assay reaction mix was added to 10 microliter samples of supernatant and left to incubate for 20 minutes after shaking for 15 seconds. Absorbance was read by a platereader (Thermo Multiskan FC) at 570 nm. A glycerol calibration line (0.015 microM-1000 microM) was used for quantification.

lipase = settings: inhibitor added 5 minutes before, relative to control; for Effect on hydrolysis of octopamine decanoate in fat suspension: octopamine decanoate 10 microM; for Effect on hydrolysis of synephrine decanoate in fat suspension: synephrine decanoate 10 microM
human volunteers [3] = test: Application on human volunteers: waistline and skinfold (Example 10); assay type: in vivo; settings: for Decrease of waistline: same molar concentration
Protocol: For abdominal/hip experiments 2 male volunteers […] (BMI 25.5 and 28 resp.) monitored belly circumference, and skinfold at belly and hip on a daily basis (8 am mornings). Blood pressure and body weight was monitored daily. […] Hydrogel was applied daily or twice daily as indicated using a 5 ml syringe to measure volume. For abdominal experiments, the indicated volume of hydrogel was applied on the belly around the belly button in a radius of 10 cm. The same volume was applied for hip areas. For leg experiments, 2.5 ml was applied on each leg. Skinfold was assessed by measuring thickness of skin at hips and belly 4 cm from belly button using a skinfold measuring device ([…]-120). […] Experiments are the average of two experiments (n=2). […] Experiments are an average of 2 or 3 runs (n=2-3).

[4] = female, human, 15 min, 10 microM
Protocol: Human belly adipose tissue was obtained from obese female subjects that underwent esthetic surgery. Tissue was pottered (Potter RW 19 Nr 29795 of Janke & Kunkel KG) in PBS solution (Irvine Scientific) with 5 mM D(+)-glucose monohydrate at 530 rpm using a Teflon potter tip.
Tissue suspension (1, 7.5, 25 or 240 mg fat/ml PBS, or plasma) was stirred and 1.98 ml aliquots were transferred to polypropylene 2 ml screwcap vials (Sarstedt). […] When inhibition of lipase was studied, propranolol or orlistat were added 5 minutes before addition of the prodrug esters (FIG. 10).
15 minutes after addition of the prodrug, lipolysis was stopped by adding 20 microliter of 1.8% HCl. Samples were spun down (13000 rpm for 3 min at 4° C.) and supernatants were stored at −18° C. for analysis.
Samples were analyzed using HPLC UV. A Gilson 234 auto-injector and Shimadzu hplc pump (10 AdVP) was used in conjunction with a shimadzu UV (10AVp) set at 270 nm. Samples were separated using a reversed phase HPLC column (Thermo BDS Hypersil C18 150 mm×2.1 mm, 3 micrometer). The mobile phase consisted of 1.6 g KH2PO4, 110 mg sodium 1-heptane sulfonate, 1 1 ultrapure water, 15 mL methanol and 1 ml acetic acid at a flowrate of 0.175 ml/min.

[5] = In vitro ester hydrolysis assay in PBS/human fat suspension; assay type: in vitro ADME; settings: PBS/human fat tissue at concentrations three times higher than rat tissue, in 110 min
Protocol: Abdominal fat tissue was harvested from male wistar rats (400 g, Harlan Zeist) and stored at −80° C. until use. Human fat tissue was obtained from esthetic surgery and stored at −80° C. until use. Tissue was thuraxed (80 mg/ml for rat tissue and 240 mg/ml for human tissue) for 1 min in Phosphate buffered saline (PBS (Irvine Scientific).
(§1) Octopamine released was measured using a 50 ml beaker thermostated at 30 degrees. 30 ml PBS (stirred) was pumped at 1 ml/min (Gilson minipulse 3) through a UV detector (SPD-10Avp Shimadzu UV/VIS) set at 280 nm and 2.56 AUFS. The outlet was recirculated back to the beaker. UV signal was recorder on a flatbed recorder (Kipp), set at 1 mm/min and 1 mV gain.
(§2) Octopamine and octopamine decanoate solutions (1 mM) were made in ultrapure water adding 1 microliter/ml of 1.8% hydrochloride acid. Octopamine decanoate was sonicated for 30 min at 30 degrees.
(§3) Upon stabilization of the UV detector on PBS, 1 ml of tissue suspension was added to the PBS. Upon stabilization of the UV signal, 5 ml of 1 mM of octopamine decanoate was added. Control experiments were performed without addition of tissue suspension in order to monitor spontaneous hydrolysis of decanoate ester in PBS.

[6] = Plasma levels of octopamine in human volunteers (Example 10); assay type: in vivo
Protocol: After thorough washing of hands, blood was sampled using […]. Blood (40 microliter) was sampled using a capillary that protruded the cap of the vial and spun down into 300 microliter vials containing 10 microliter of heparin 20 IE/ml. Plasma was pipetted off and transferred to 300 microliter vials and stored at -20° C. until analysis. Octopamine was analyzed as described in Example 7. […] FIG. 17b), and of octopamine pentanoate (3.98 mg/ml, 2.5 ml, once daily); FIG. 17c). Experiments are an average of one or two experiments (n=1-2).

Male wistar rats = test: In vivo effect of hydrogel treatment on waist, weight and plasma glycerol of rats (Example 5); design: species or system rat
Protocol: Male wistar rats (approx. 500 g) were weight daily and waistline was measured. Animals were shaven once weekly at least 12 hours before next treatment to ensure wound healing.
Animals were first treated for 1 month with carbomer hydrogel not containing prodrugs (twice daily abdominal application 3 by 3 cm) , after which animals were treated with 0.5 ml carbomer hydrogel containing 5 mg/ml octopamine decanoate (application concentration 0.277 mg/cm^2). Tail vena blood draws (100 microliter plasma, 5 microliter heparine 500 IE per 100 microliter blood) were taken on the day −8, 21, 36 (start of compound treatment), 51 and 58. Blood was spun off (10 min 14 KRPM) and plasma was stored at −80.
(§4) Blood samples were analyzed for glycerol using an enzymatic kit (Sigma Aldrich) and fluorescence intensity was measured using direct flow injection (Vici valve in combination with shimadzu 10 ADvp hplc pump at 0.15 ml/min, thermo 15*2.1 C18 column prior to valve and using ultrapure water as mobile phase) of 20 microliter into a HPLC fluorescence detector (Shimadzu RF 10Axl). Calibration was performed by preparation of calibration samples 2-1000 microM.

[7] = In vitro ester hydrolysis assay, control in PBS without tissue (spontaneous hydrolysis); assay type: physicochemical; settings: 30 degrees
Protocol: as §1, §2, §3

[8] = Skin and fat penetration assay, cubes of human fat with skin (Example 8); assay type: in vitro ADME
Protocol: Cubes of human fat (5×5×5 cm) with skin attached from obese female subjects that underwent esthetic surgery was dissected at 4° C. Cubes were transferred to containers so the skin would overlay the rim of the container. 0.25 ml of hydrogels comprising 2.75 mg/ml free octopamine, 5 mg/ml octopamine decanoate or 3.98 mg/ml octopamine pentanoate were applied once and left to penetrate for 20 hrs. Cubes were subsequently frozen at −80° C.
Upon defrosting, skin was carefully removed taking care not to contaminate the underlying fat. The fat was dissected to yield a column of 1×1 cm of fat that was directly under the site of application. The column was sliced to yield 0.5 cm thick slices covering 0-2cm fat depth under the site of application. Tissue was sonicated in 5 ml PBS (5 mM glucose), samples were spun down (13000 rpm for 30 min at 4° C.). Clear supernatant was removed with an injection needle and syringe and frozen until analysis. Analysis of octopamine was performed as described in Example 7.

human fat suspension [9] = test: In vitro assay of glycerol production in human fat (Example 3); assay type: cell-based; settings: 2 hours at 37 degrees Celsius
Protocol: Human fat tissue was pottered using a teflon potter in 10 ml PBS with 6 mM Glucose (2.4 gram fat tissue per 10 ml). The suspension was transferred to a 50 ml beaker and was gently stirred at 37 degrees Celsius to maintain the homogeneous nature. 0.3 ml suspension was transferred to 2 ml reaction vials, spiked with octopamine (end concentration 1 microM) and octopamine decanoate (end concentration 10 microM and PBS/glucose were added until 2 ml end volume. Vials were incubated at 37 degrees Celsius for 2 hours.
Samples were spun off at 4000 rpm for 2 min and 10 microliter samples were taken after removal of floating fat with a tissue.
as §4, with “Samples” for “Blood samples”, “analyzed” for “analyzed for glycerol”, “Shimadzu” for “shimadzu”, “HPLC” for “hplc”, “10Ax1).” for “10Axl).”

human volunteers [10] = test: Blood pressure, heart rate and side effects in human volunteers (Example 10); settings: humans
[11] = Skin penetration chamber, human skin (Example 7); assay type: in vitro ADME; settings: 0.25 ml hydrogel 2.75 mg/ml, human skin 6.25 cm^2, 2 hours
Protocol: The chamber was thermostated at 37° C. Samples were drawn from the PBS pottered tissue with a 1 ml syringe and analyzed using LC-mass spectrometry. Given the full conversion, this assay evaluates the total penetration of octopamine prodrug through skin based on equal amounts of octopamine, and compares this to the penetration of an equal amount of octopamine itself. Samples were analyzed using HPLC masspectrometry. A Shimadzu HPLC (LC20AD pump and […] injector) was used in conjunction with a sciex API 4000 Masspectrometer. The HPLC column was a Phenomenex, Synergi Max (BOL-P-RP2.5-036), 3.0×100mm, […], thermostated at 35° C. The mobile phase consisted of Eluent A: 0.1% formic acid (“FA”) in ultrapure water (“UP”) and Eluent B: 70% acetonitrile (“ACN”) +0.1% FA at a total flow of 0.3 ml/min. […] UP/ACN/FA =50/50/0.1. […] Gradients were maintained at 100% B for 0.5 minute. […] Samples were centrifugated for 5 mins at 13000 rpm and 14 μL 0.1% FA in UP was added to 6 μL supernatant and vortexed for 10 sec. The autoinjector was programmed to add 20 μl 0.5 mg/ml […] reagent (online) and inject 35 μl. The […] reagent was prepared by dissolving 5 mg […] in 4.5 ml UP, 5 ml 0.25 M NaHCO3, 0.5 ml methanol (“MeOH”) and 20 microliter 2-mercapto-ethanol.

[12] = humans n=2, hydrogel on belly and hips, 2.5 ml once daily or 5 ml twice daily, after 16 days
[13] = hydrogel 5 mg/ml, 5 ml twice daily on belly and hips

Compound: CNCC(O)c1ccc(O)cc1 (racemic) [synephrine, p-synephrine, reference compound]
- Stability in PBS ([1]; PBS at 37 degrees): stable

Compound: CC(C)(C)NCC(O)COc1cccc2[nH]c(=O)[nH]c12 (stereo not drawn) [CGP12177]
- Glycerol production (FIG. 20) (human fat suspension [2]): increased

Compound: C[C@H](Cc1ccc2c(c1)OC(C(=O)[O-])(C(=O)[O-])O2)NC[C@H](O)c1cccc(Cl)c1.[Na+].[Na+] [CL 316243]
- Glycerol production (FIG. 20) (human fat suspension [2]): increased

Compound: CCCCCCCCCCC[C@@H](C[C@@H]1OC(=O)[C@H]1CCCCCC)OC(=O)[C@H](CC(C)C)NC=O [Orlistat]
- Effect on hydrolysis of octopamine decanoate in fat suspension (lipase): further suppresses
- Effect on hydrolysis of synephrine decanoate in fat suspension (lipase): further suppresses

Compound: CCOC(=O)COc1ccc2c(c1)C[C@@H](NC[C@H](O)c1cccc(Cl)c1)CC2 [SR 58611A, Amibegron]
- Glycerol production (FIG. 20) (human fat suspension [2]): increased

Compound: CCc1ccccc1OC[C@@H](O)CN[C@H]1CCCc2ccccc21 [SR 59230]
- Glycerol production (FIG. 20) (human fat suspension [2]): reduced

Compound: Cn1c(=O)c2c(ncn2C)n(C)c1=O [caffeine]
- Glycerol production (FIG. 20) (human fat suspension [2]): increased

Compound: CCCCCCCCCC(=O)Oc1ccc(C(O)CN)cc1 (stereo not drawn) [octopamine decanoate, 4-(2-amino-1-hydroxyethyl)phenyl decanoate]
- Decrease of waistline (human volunteers [3]; [12]): about 4%
- Reduction of skinfold (belly and hip) (human volunteers [3]; hydrogel 5 mg/ml, 5 ml twice daily, in 20 days): 10-20%
- Base level of hydrolysis in fat suspension [4]: 40-45%
- Conversion by hydrolysis [5]: over 40%
- Plasma levels of free octopamine upon administration of hydrogel ([6]; human, in vivo): did not result in unacceptable plasma levels
- Hydrolysis in PBS compared with plasma or fat tissue ([1]; PBS at 37 degrees): much lower rate
- Animal weights (Male wistar rats; 0.5 ml hydrogel 5 mg/ml twice daily abdominal): remained inclining according to their growth curve
- Reduction of waistline (Male wistar rats; 0.5 ml hydrogel 5 mg/ml twice daily abdominal, after 3 weeks of treatment): about 10%
- Plasma glycerol levels (Male wistar rats; after 15 days of treatment, P=0.101): increased
- Plasma glycerol levels (Male wistar rats; after 22 days of treatment, P=0.024): reaching significance
- Spontaneous hydrolysis into octopamine, rate [7]: 10 % per 110 min
- Penetration through skin and fat tissue [8]: penetrate through both skin and fat tissue
- Glycerol production (levels) (human fat suspension [9]; end concentration 10 microM, P=0.047): reached significance
- Blood pressure (systole and diastole) (human volunteers [10]; [13]): remained normal
- Heart rate (human volunteers [10]; [13]): remained normal
- Side effects (human volunteers [10]; topical hydrogel treatment regimes): No side effects were reported

Compound: CC(C)NC[C@H](O)COc1cccc2ccccc12 [propranolol, (S)-(-)-Propranolol HCl]
- Glycerol content (human fat suspension [2]; concentrations above 1000 nM): decreased
- Glycerol content (human fat suspension [2]; concentrations from 0.1 to at least 1000 nM): more or less constant
- Effect on hydrolysis of octopamine decanoate in fat suspension (lipase): decreases
- Effect on hydrolysis of synephrine decanoate in fat suspension (lipase): decreases

Compound: CCCCCCCCCC(=O)Oc1ccc(C(O)CNC)cc1 (stereo not drawn) [synephrine decanoate, 4-(1-hydroxy-2-(methylamino)ethyl)phenyl decanoate]
- Base level of hydrolysis in fat suspension [4]: 40-45%
- Hydrolysis in PBS compared with plasma or fat tissue ([1]; PBS at 37 degrees): much lower rate

Compound: Cc1cccc(C)c1N=C1NCCCS1 [xylazine, Xylazine]
- Glycerol production (FIG. 20) (human fat suspension [2]): reduced

Compound: COC(=O)[C@@H]1[C@H]2C[C@H]3c4[nH]c5ccccc5c4CCN3C[C@@H]2CC[C@@H]1O [yohimbine, Yohimbine]
- Glycerol production (FIG. 20) (human fat suspension [2]): increased

Compound: p-Octopamine [reference compound]
- Decrease of waistline (human volunteers [3]; [12]): without effect
- Decrease of waistline (human volunteers [3]; single individual, hydrogel on belly and hips, after 21 days): without effect
- Plasma levels of free octopamine upon administration of hydrogel ([6]; humans, 2.5 ml or 5 ml hydrogel): acceptable systemic concentrations
- Stability in PBS [1]: stable
- Penetration of octopamine through skin [11]: minor penetration
- Penetration through skin and fat tissue ([8]; 0.25 ml hydrogel applied once, 20 hrs): penetrate through both skin and fat tissue
- Glycerol production (levels) (human fat suspension [9]; end concentration 1 microM, P=0.10): increased
